Assay: Accelerated stability test (50° C.) with pH stability test of sucralose sample solution
Type: physicochemical
Conditions: for Days to pH Failure / Days to pH Failure (Final Product Moisture Content) / Days to pH Failure (Initial Moisture Content): 50° C.; for Days to pH Failure: WHIRLPAK polyethylene bags, failure = pH drop ≧1.0; for Days to pH Failure (Final Product Moisture Content): final dried product; for Days to pH Failure (Final Product Moisture Content) / Days to pH Failure (Initial Moisture Content): Example 3; for Days to pH Failure (Initial Moisture Content): partially dried product at intermediate (initial) moisture content; for Initial pH difference: sample solution vs pH-adjusted water at time zero; for Initial pH: sample solution (5 g in 50 ml pH-adjusted water) at time zero; for stability at intermediate moisture contents compared with final moisture levels: crystallized with no pH control, intermediate moisture 3 to 5% vs final 0.05, 0.11, 0.21%
From the text: Label seven 6 oz. and seven 18 oz. WHIRLPAK® polyethylene bags with indelible marker for each batch being tested for stability. Accurately weigh 25 g±0.01 g of sucralose into each 6 oz. WHIRLPAK® polyethylene bag. Heat or impulse seal the 6 oz. bag to ensure air tightness. Cut off any excess polyethylene at the top of the bag above the seal. Place the 6 oz. sealed bag into the 18 oz. bag and heat or impulse seal the 18 oz. bag to ensure air tightness. Roll down the top of the 18 oz. bag above the seal and bend the metal ties to form hooks.
Place the prepared bags into an oven stabilized at 50° C.±0.5° C. by hanging them from racks by the bag hooks. The bags must be freely suspended and not touch anything. Record the time samples are placed into the oven.
The pH stability test is conducted on the sucralose at time zero (the day the samples are placed in the oven, before the sucralose is exposed to elevated temperature) and every 24 hours until the batch being tested fails the test.
Place approximately 100 ml of deionized water into a 150 ml beaker. Using 0.1 N hydrochloric acid and/or 0.1 N sodium hydroxide, adjust the pH of the water to be between 5.8 and 6.0. Record the pH reading.
Accurately weigh 5 g±0.001 g of the product to be tested and transfer it to a 50 ml volumetric flask. Dissolve and bring to the mark by adding pH-adjusted water. If the sample to be tested is one that has been exposed to heat, remove one bag of the batch being tested from the oven and allow it to cool to room temperature before opening and sampling.
Pour the solution into a 100 ml beaker containing a stir bar, and slowly stir the solution on a magnetic stirrer. Immerse the pH electrode in the sample, allow the pH reading to stabilize, and record the pH reading of the sample. If no pH drop is observed after all the bags have been tested, the experiment is void and the test must repeated with a larger number of bags.
Record (to one decimal place) the pH of both the pH-adjusted water used and the sample sucralose solution. Subtract the pH of the […]. Report the result as (−) for a pH drop and (+) for a pH gain, e.g.:
The sample fails the test if there is a pH drop of 1.0 pH unit or more. The pH stability of the batch is defined as the number of days until the pH drop between the sample solution and that of the pH adjusted water is ≧1.0.
Samples of sucralose were tested for stability using the above procedures, but using bags of different moisture permeability. All other experimental details were the same. The TYVEK®/polyethylene bags are permeable; the WHIRLPAK® bags are less permeable. The A8080 bag consists of aluminum foil laminated to low-density polyethylene, which makes it very impermeable to moisture.

[1] = Example 2, pH at crystallizer varied
[2] = Example 1, sodium acetate in mother liquor varied
[3] = (−) pH drop, (+) pH gain, Example 1

| Compound | Days to pH Failure [1] [Days] | Days to pH Failure (Final Product Moisture Content) [Days] | Days to pH Failure (Initial Moisture Content) [Days] | Initial pH difference [1] | Days to pH Failure [2] [Days] | Initial pH [2] | Initial pH difference [3] | stability at intermediate moisture contents compared with final moisture levels |
| --- | --- | --- | --- | --- | --- | --- | --- | --- |
| OC[C@H]1O[C@H](O[C@]2(CCl)O[C@H](CCl)[C@@H](O)[C@@H]2O)[C@H](O)[C@@H](O)[C@H]1Cl [Sample 35, 4,1′,6′-trichloro-4,1′,6′-trideoxy-galactosucrose] | 5 | 5 | 7 | +0.10 | – | – | – | – |
| OC[C@H]1O[C@H](O[C@]2(CCl)O[C@H](CCl)[C@@H](O)[C@@H]2O)[C@H](O)[C@@H](O)[C@H]1Cl [Sample 12, 4,1′,6′-trichloro-4,1′,6′-trideoxy-galactosucrose] | – | – | – | – | 6 | 5.85 | −0.10 | – |
| OC[C@H]1O[C@H](O[C@]2(CCl)O[C@H](CCl)[C@@H](O)[C@@H]2O)[C@H](O)[C@@H](O)[C@H]1Cl [Sample 46, 4,1′,6′-trichloro-4,1′,6′-trideoxy-galactosucrose] | 7 | – | – | +0.43 | – | – | – | – |
| OC[C@H]1O[C@H](O[C@]2(CCl)O[C@H](CCl)[C@@H](O)[C@@H]2O)[C@H](O)[C@@H](O)[C@H]1Cl [Sample 27, 4,1′,6′-trichloro-4,1′,6′-trideoxy-galactosucrose] | – | – | – | – | 6 | 5.99 | +0.03 | – |
| OC[C@H]1O[C@H](O[C@]2(CCl)O[C@H](CCl)[C@@H](O)[C@@H]2O)[C@H](O)[C@@H](O)[C@H]1Cl [Sample 33, 4,1′,6′-trichloro-4,1′,6′-trideoxy-galactosucrose] | 4 | – | – | −0.94 | – | – | – | less stable at intermediate moisture contents (3 to 5%) than they were at their final moisture levels |
| OC[C@H]1O[C@H](O[C@]2(CCl)O[C@H](CCl)[C@@H](O)[C@@H]2O)[C@H](O)[C@@H](O)[C@H]1Cl [Sample 34, 4,1′,6′-trichloro-4,1′,6′-trideoxy-galactosucrose] | 3 | – | – | −1.03 | – | – | – | less stable at intermediate moisture contents (3 to 5%) than they were at their final moisture levels |
| OC[C@H]1O[C@H](O[C@]2(CCl)O[C@H](CCl)[C@@H](O)[C@@H]2O)[C@H](O)[C@@H](O)[C@H]1Cl [Sample 8, 4,1′,6′-trichloro-4,1′,6′-trideoxy-galactosucrose] | – | – | – | – | 5 | 5.19 | −0.73 | – |
| OC[C@H]1O[C@H](O[C@]2(CCl)O[C@H](CCl)[C@@H](O)[C@@H]2O)[C@H](O)[C@@H](O)[C@H]1Cl [Sample 36, 4,1′,6′-trichloro-4,1′,6′-trideoxy-galactosucrose] | 5 | 5 | 7 | +0.04 | – | – | – | – |
| OC[C@H]1O[C@H](O[C@]2(CCl)O[C@H](CCl)[C@@H](O)[C@@H]2O)[C@H](O)[C@@H](O)[C@H]1Cl [Sample 19, 4,1′,6′-trichloro-4,1′,6′-trideoxy-galactosucrose] | – | – | – | – | 6 | 6.06 | +0.13 | – |
| OC[C@H]1O[C@H](O[C@]2(CCl)O[C@H](CCl)[C@@H](O)[C@@H]2O)[C@H](O)[C@@H](O)[C@H]1Cl [Sample 30, 4,1′,6′-trichloro-4,1′,6′-trideoxy-galactosucrose] | – | – | – | – | 5 | 5.95 | −0.02 | – |
| OC[C@H]1O[C@H](O[C@]2(CCl)O[C@H](CCl)[C@@H](O)[C@@H]2O)[C@H](O)[C@@H](O)[C@H]1Cl [Sample 20, 4,1′,6′-trichloro-4,1′,6′-trideoxy-galactosucrose] | – | – | – | – | 6 | 6.09 | +0.08 | – |
| OC[C@H]1O[C@H](O[C@]2(CCl)O[C@H](CCl)[C@@H](O)[C@@H]2O)[C@H](O)[C@@H](O)[C@H]1Cl [Sample 16, 4,1′,6′-trichloro-4,1′,6′-trideoxy-galactosucrose] | – | – | – | – | 6 | 6.20 | +0.27 | – |

Reference: US8017767B2, “Sucralose composition” (Tate & Lyle Public Limited Company, priority 2000, dated 2011)
